Source: patent publication US10251861B2, “Methods for treating burn and scar injury using tocotrienol compositions” (Ohio State Innovation Foundation, priority 2012, dated 2019)

What was measured:
[1] = per day; Food and Nutrition Board of the Institute of Medicine; also printed as 1,500 IU; cited from earlier work
NF-KB activation = settings: cited from earlier work; for tumor necrosis factor a (TNF-a)-induced NF-KB activation: similar dose of both compounds
IKBa kinase (IKK) = settings: cited from earlier work
Akt = settings: cited from earlier work
burn-induced scar = assay: Burn-induced scar outcome after topical tocotrienol (FIG. 1); format: in vivo; settings: topical treatment vs placebo; 65 days after burn injury; n=8; p<0.05
Experimental: (§1) FIG. 1A-FIG. 1D. Topical vitamin E alpha-tocotrienol improves scar outcome. Alpha-tocotrienol content and scar outcomes were assessed in skin 65 days after burn injury. Representative placebo and T3-treated burn scars depicted (A) (scale bar=1 cm). […] Color (C) and contour (D) were judged by blinded reviewers according to their respective 5-point scales. […] Data are mean+SD (n=8); *p<0.05.

[2] = Alpha-tocotrienol content in burn scar tissue (FIG. 1B); format: in vivo; settings: topical treatment vs placebo; skin 65 days after burn injury; n=8; p<0.05
Experimental: as §1

[3] = Ongoing IRB protocol 200500034, oral TCT supplementation before surgery; format: in vivo, human
Experimental: In this protocol, patients are being supplemented 200 mg TCT twice a day for a minimum of 4 weeks prior to surgery. The maximum supplementation has been for over a year (currently on-going supplementation)
(§2) The inventors have also observed that oral supplementation in animals results in enhancement of tocotrienol in tissues such as skin, brain, lung etc. Levels of tocotrienol in human tissues following supplementation is currently being investigated by the inventors' laboratory (IRB protocol 200500034). The patients in the inventors' ongoing study are being orally supplemented with 200 mg twice a day. Recently, pharmacokinetic studies have been performed where humans have been orally supplemented with tocotrienol (dose: 692 mg). Based on this work and the inventors' current study, the inventors plan to use (200×2=400 mg/day; note that for alpha-tocopherol 1 mg=1.51 U) for the inventors' study.
In this protocol, patients are being supplemented 200 mg TCT twice a day for a minimum of 4 weeks prior to surgery.
In this protocol, patients are being supplemented 200 mg TCT twice a day for a minimum of 4 weeks prior to surgery. The maximum supplementation has been for over a year (currently on-going supplementation).

[4] = Oral tocotrienol supplementation in animals, tissue levels; format: in vivo
Experimental: as §2

IL-1 and IL-6 in serum = settings: treated rats; vs before nicotine and tocotrienol treatment; cited from earlier work
[5] = test system: adhesion molecules (ICAM, VCAM, and E-selectin); settings: compared among forms of vitamin E; cited from earlier work
HMG-CoA reductase = target: T1, HMG-CoA reductase (Homo sapiens, UniProt P04035); settings: micromolar amounts; cited from earlier work
T1 sequence (P04035 1-888): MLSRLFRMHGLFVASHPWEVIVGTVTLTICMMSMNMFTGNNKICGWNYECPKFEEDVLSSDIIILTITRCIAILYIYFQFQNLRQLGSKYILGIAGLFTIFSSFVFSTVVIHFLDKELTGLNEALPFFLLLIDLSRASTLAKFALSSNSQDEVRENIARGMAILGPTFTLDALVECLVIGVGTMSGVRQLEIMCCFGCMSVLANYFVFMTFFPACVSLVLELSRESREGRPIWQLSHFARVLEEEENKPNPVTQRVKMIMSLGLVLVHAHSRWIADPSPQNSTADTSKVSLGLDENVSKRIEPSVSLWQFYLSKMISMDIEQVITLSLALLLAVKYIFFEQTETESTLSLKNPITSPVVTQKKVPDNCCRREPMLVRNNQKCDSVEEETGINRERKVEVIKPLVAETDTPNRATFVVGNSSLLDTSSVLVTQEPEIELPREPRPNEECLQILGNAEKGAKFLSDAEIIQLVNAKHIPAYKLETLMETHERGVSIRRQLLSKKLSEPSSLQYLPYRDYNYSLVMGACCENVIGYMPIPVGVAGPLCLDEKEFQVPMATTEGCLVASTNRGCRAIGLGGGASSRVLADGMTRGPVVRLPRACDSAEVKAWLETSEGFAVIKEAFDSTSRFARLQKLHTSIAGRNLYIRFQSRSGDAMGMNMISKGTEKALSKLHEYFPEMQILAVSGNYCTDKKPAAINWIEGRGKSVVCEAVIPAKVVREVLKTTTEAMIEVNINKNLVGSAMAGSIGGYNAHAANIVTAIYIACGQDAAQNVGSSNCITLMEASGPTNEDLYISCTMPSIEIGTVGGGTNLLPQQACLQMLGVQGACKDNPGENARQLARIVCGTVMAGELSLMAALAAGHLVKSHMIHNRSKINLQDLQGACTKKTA

Question: Which “upper tolerable intake level (UL)” value [1] does the source give for `Cc1c(C)c2c(c(C)c1O)CC[C@@](C)(CCC[C@H](C)CCC[C@H](C)CCCC(C)C)O2` [alpha-tocopherol] here?
Answer: Its value is 1,000 mg.

Question: With `Cc1c(O)cc2c(c1C)O[C@](C)(CCC[C@H](C)CCC[C@H](C)CCCC(C)C)CC2` [gamma-tocopherol] as the compound, how does the “tumor necrosis factor a (TNF-a)-induced NF-KB activation” value (NF-KB activation) read?
Answer: Its value is “no effect”.

Question: Which “NF-KB activation induced by phorbol myristate acetate, okadaic acid, lipopolysaccharide, cigarette smoke, IL-1I, and epidermal growth factor” value (NF-KB activation) does the source give for `CC(C)=CCC/C(C)=C/CC/C(C)=C/CC[C@]1(C)CCc2cc(O)c(C)c(C)c2O1` [gamma-tocotrienol] here?
Answer: Its value is “abolished”.

Question: And the “TAK 1/TAB 1-induced NF-KB dependant reporter gene expression” value (NF-KB activation)?
Answer: The value was “inhibit”.

Question: What about the “constitutive NF-KB activation expressed by certain tumor cells” value (NF-KB activation) of the same compound?
Answer: Its value is “nullified”.

Question: What about the “tumor necrosis factor a (TNF-a)-induced NF-KB activation” value (NF-KB activation) of the same compound?
Answer: The value was “completely abolished”.

Question: And the “TNF-induced activation of IKBa kinase (IKK)” value (IKBa kinase (IKK))?
Answer: Its value is “inhibiting”.

Question: And the “TNF induced Akt activation” value (Akt)?
Answer: The value was “inhibit”.

Question: With tocotrienol as the compound, how does the “scar color, 5-point scale, blinded reviewers” value (burn-induced scar) read?
Answer: Its value is “significantly improved”.

Question: What about the “scar contour, 5-point scale, blinded reviewers” value (burn-induced scar) of the same compound?
Answer: The value was “significantly improved”.

Question: What about the “alpha-tocotrienol content in scar tissue” value [2] of the same compound?
Answer: Its value is “significantly increased”.

Question: What about the related adverse effects ([3]; 200 mg TCT twice a day, minimum 4 weeks prior to surgery, maximum over a year) of the same compound?
Answer: The related adverse effects was “no related adverse affects”.

Question: What about the reaching the skin ([3]; oral dosage of 400 mg per day) of the same compound?
Answer: The reaching the skin was “sufficient to reach the skin”.

Question: What about the appearance of scars ([3]; pre-treatment with TCT, observations from ongoing study) of the same compound?
Answer: The appearance of scars was “Improves”.

Question: And the “tocotrienol in tissues such as skin, brain, lung” value [4]?
Answer: Its value is “enhancement”.

Question: What about the “serum levels of IL-6” value (IL-1 and IL-6 in serum) of the same compound?
Answer: Its value is “significantly lower”.

Question: What about the “reducing endothelial expression of adhesion molecules and adhesion to monocytes” value [5] of the same compound?
Answer: Its value is “most effective”.

Question: And the “activity of HMG-CoA reductase” value (HMG-CoA reductase)?
Answer: Its value is “suppress”.
